According to patent US9669003B2, “Use of flavone and flavanone derivatives in preparation of sedative and hypnotic drugs” (priority 2012, dated 2017):
Marks after values point to notes of the source that are not given here.

Columns and labels:
Assay type in all cases: in vivo
[1] = tested on: Kunming mice; experiment: Influence on autonomic activity of normal mice (ZIL-2 mice autonomic activity meter, counts within 10 min); conditions: intragastric, x ± s, n = 10; for Times of activities in 1 h after drug administration/10 min: 1 h after administration; for Times of activities in 2 h after drug administration/10 min: 2 h after administration; for Times of activities in 24 h after drug administration/10 min: 24 h after administration
How it was run: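 Activity counts during a 10-min window were taken at 1, 2 and 24 h after dosing in groups of 10 mixed-sex Kunming mice. Compounds were given in 0.5% CMC-Na at 25, 50 or 100 mg/kg. Statistics used Levene's homogeneity test, ANOVA and Dunnett's multiple comparisons.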

[2] = tested on: Kunming mice; experiment: Influence on hypnosis effect with pentobarbital sodium doses below the threshold (25 mg/kg i.p.); conditions: pentobarbital sodium 25 mg/kg i.p. 60 min later, sleep observed in 30 min, n = 10
How it was run: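 Percentage of mice sleeping within 30 min after subthreshold pentobarbital sodium (25 mg/kg i.p.), defined by loss of righting reflex over 1 min, analysed by χ2. Compound in 0.5% CMC-Na given intragastrically at 25/50/100 mg/kg 60 min before; groups of 10 Kunming mice, both sexes.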

[3] = tested on: Kunming mice; experiment: Influence on hypnosis effect with pentobarbital sodium doses at the threshold (50 mg/kg i.p.); conditions: pentobarbital sodium 50 mg/kg i.p. 60 min later, x ± s, n = 10
How it was run: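 Pentobarbital sodium (0.3%, 50 mg/kg i.p.) injected 60 min after a single intragastric dose (25, 50, 100 mg/kg, 0.5% CMC-Na vehicle) in Kunming mice, 10 per group, sexes balanced. Onset and length of sleep (righting reflex lost over 1 min) analysed by ANOVA; sleeping incidence by χ2 test.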

[4] = test drug 25 mg/kg intragastric single dose
[5] = test drug 50 mg/kg intragastric single dose
[6] = test drug 100 mg/kg intragastric single dose
[7] = 25 mg/kg intragastric single dose
[8] = 50 mg/kg intragastric single dose
[9] = 100 mg/kg intragastric single dose

CCCc1cc(-c2cc(=O)c3c(I)cc(CCS(=O)(=O)O)cc3o2)cc(C(N)=O)c1C(=O)O [Example 23]
Times of activities in 1 h after drug administration/10 min ([1]; 25 mg/kg): 287.2 ± 45.4 /10 min | Times of activities in 2 h after drug administration/10 min ([1]; 25 mg/kg): 263.2 ± 45.2 /10 min | Times of activities in 24 h after drug administration/10 min ([1]; 25 mg/kg): 307.2 ± 82.1 /10 min | Times of activities in 1 h after drug administration/10 min ([1]; 50 mg/kg): 229.9 ± 40.6 /10 min | Times of activities in 2 h after drug administration/10 min ([1]; 50 mg/kg): 244.7 ± 47.6 /10 min | Times of activities in 24 h after drug administration/10 min ([1]; 50 mg/kg): 300.7 ± 71.4 /10 min | Times of activities in 1 h after drug administration/10 min ([1]; 100 mg/kg): 135.5 ± 35.7 /10 min | Times of activities in 2 h after drug administration/10 min ([1]; 100 mg/kg): 181.0 ± 38.2 /10 min | Times of activities in 24 h after drug administration/10 min ([1]; 100 mg/kg): 292.8 ± 90.5 /10 min | Number of sleeping animals [2, 4]: 3 | rate of sleeping (%) [2, 4]: 30% | Number of sleeping animals [2, 5]: 4 | rate of sleeping (%) [2, 5]: 40* % | Number of sleeping animals [2, 6]: 7 | rate of sleeping (%) [2, 6]: 70** % | duration of sleep [3, 7]: 22.77 ± 25.89 min | time to sleep [3, 7]: 5.35 ± 2.33 min | duration of sleep [3, 8]: 28.59 ± 26.98 min | time to sleep [3, 8]: 5.17 ± 2.26 min | duration of sleep [3, 9]: 64.89 ± 45.78 min | time to sleep [3, 9]: 3.14 ± 1.21 min

C#Cc1ccc(-c2cc(=O)c3cc(F)c(C(=O)O)c(O)c3o2)cc1CCCCCCCCCCCCCCCCCCCC [Example 33]
Times of activities in 1 h after drug administration/10 min ([1]; 25 mg/kg): 304.9 ± 39.2 /10 min | Times of activities in 2 h after drug administration/10 min ([1]; 25 mg/kg): 298.2 ± 35.6 /10 min | Times of activities in 24 h after drug administration/10 min ([1]; 25 mg/kg): 273.2 ± 80.8 /10 min | Times of activities in 1 h after drug administration/10 min ([1]; 50 mg/kg): 266.4 ± 51.6 /10 min | Times of activities in 2 h after drug administration/10 min ([1]; 50 mg/kg): 247.1 ± 58.3 /10 min | Times of activities in 24 h after drug administration/10 min ([1]; 50 mg/kg): 284.7 ± 78.7 /10 min | Times of activities in 1 h after drug administration/10 min ([1]; 100 mg/kg): 179.0 ± 49.1 /10 min | Times of activities in 2 h after drug administration/10 min ([1]; 100 mg/kg): 165.8 ± 52.3 /10 min | Times of activities in 24 h after drug administration/10 min ([1]; 100 mg/kg): 318.4 ± 80.5 /10 min | Number of sleeping animals [2, 4]: 5 | rate of sleeping (%) [2, 4]: 50** % | Number of sleeping animals [2, 5]: 6 | rate of sleeping (%) [2, 5]: 60** % | Number of sleeping animals [2, 6]: 7 | rate of sleeping (%) [2, 6]: 70*** % | duration of sleep [3, 7]: 30.43 ± 22.06 min | time to sleep [3, 7]: 4.81 ± 2.37 min | duration of sleep [3, 8]: 36.53 ± 13.21 min | time to sleep [3, 8]: 4.62 ± 1.75 min | duration of sleep [3, 9]: 51.56 ± 20.75 min | time to sleep [3, 9]: 3.82 ± 1.12 min
